How the values were obtained:
[1] = biological target: High affinity nerve growth factor receptor (Homo sapiens, UniProt P04629); assay: Inhibition of wild type TrkA (unknown origin) using poly(Glu: Tyr) as substrate preincubated for 15 mins followed by substrate addition and further incubated for 30 mins in presence of [gamma-33P]ATP by scintillation counting method
BaF3 [2] = assay: cells; conditions: Mus musculus
Description: Cytotoxicity against mouse BaF3 cells harboring TEL fused TrkC G613R mutant assessed as inhibition of cell growth by MTT assay

[3] = biological target: BDNF/NT-3 growth factors receptor (Homo sapiens, UniProt Q16620); assay: Inhibition of wild type TrkB (unknown origin) using poly(Glu: Tyr) as substrate preincubated for 15 mins followed by substrate addition and further incubated for 30 mins in presence of [gamma-33P]ATP by scintillation counting method
Chain of BDNF/NT-3 growth factors receptor (Q16620 whole entry): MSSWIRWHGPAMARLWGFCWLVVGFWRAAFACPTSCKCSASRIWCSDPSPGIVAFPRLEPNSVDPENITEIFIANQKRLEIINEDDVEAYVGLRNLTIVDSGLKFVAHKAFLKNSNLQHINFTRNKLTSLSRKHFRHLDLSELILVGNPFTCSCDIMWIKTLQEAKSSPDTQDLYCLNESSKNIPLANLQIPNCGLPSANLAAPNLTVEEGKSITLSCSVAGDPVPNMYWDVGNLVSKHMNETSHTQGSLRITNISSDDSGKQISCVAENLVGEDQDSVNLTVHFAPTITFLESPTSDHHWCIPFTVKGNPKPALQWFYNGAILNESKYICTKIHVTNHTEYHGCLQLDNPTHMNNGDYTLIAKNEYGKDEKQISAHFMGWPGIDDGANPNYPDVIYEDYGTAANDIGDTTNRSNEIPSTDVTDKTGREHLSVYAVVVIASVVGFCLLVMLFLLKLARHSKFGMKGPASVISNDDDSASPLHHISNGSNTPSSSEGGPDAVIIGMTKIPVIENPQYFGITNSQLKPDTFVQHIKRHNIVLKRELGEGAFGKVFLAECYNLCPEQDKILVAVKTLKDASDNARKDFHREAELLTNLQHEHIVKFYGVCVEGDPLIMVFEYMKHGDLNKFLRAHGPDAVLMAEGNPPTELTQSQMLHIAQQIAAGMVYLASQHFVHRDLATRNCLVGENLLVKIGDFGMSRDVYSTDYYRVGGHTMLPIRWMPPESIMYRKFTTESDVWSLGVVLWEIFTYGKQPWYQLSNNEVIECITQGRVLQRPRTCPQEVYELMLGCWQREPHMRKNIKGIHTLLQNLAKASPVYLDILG

BaF3 [4] = assay: cells; conditions: Mus musculus, BaF3, 72 h
BaF3 [5] = assay: cells; conditions: Mus musculus, BaF3, 72 h; remark: listed apart in the source
Description: Cytotoxicity against mouse BaF3 cells expressing TEL fused TrkC G623R assessed as inhibition of cell growth incubated for 3 days by CCK-8 assay

in vitro = conditions: mouse, BaF3 cells
Description: Cytotoxicity against mouse BaF3 assessed as inhibition of cell growth incubated for 3 days by CCK-8 assay

BaF3 [6] = assay: Cytotoxicity against mouse BaF3 cells expressing LMNA fused TrkA F589L mutant assessed as inhibition of cell growth incubated for 3 days by CCK-8 assay; type: functional, cell-based; conditions: BaF3, 72 h
BaF3 [7] = assay: cells; conditions: Mus musculus, BaF3, 72 h; remark: listed apart in the source
Description: Cytotoxicity against mouse BaF3 cells expressing TEL fused TrkC assessed as inhibition of cell growth incubated for 3 days by CCK-8 assay

BaF3 [8] = assay: cells; conditions: Mus musculus, BaF3, 72 h; remark: listed apart in the source
Description: Cytotoxicity against mouse BaF3 cells expressing CD74 fused TrkA assessed as inhibition of cell growth incubated for 3 days by CCK-8 assay

BaF3 [9] = assay: cells; conditions: Mus musculus, BaF3, 72 h; remark: listed apart in the source
Description: Cytotoxicity against mouse BaF3 cells expressing TEL fused TrkA assessed as inhibition of cell growth incubated for 3 days by CCK-8 assay

BaF3 [10] = assay: cells; conditions: Mus musculus, BaF3, 72 h; remark: listed apart in the source
Description: Cytotoxicity against mouse BaF3 cells expressing TEL fused TrkC G696C assessed as inhibition of cell growth incubated for 3 days by CCK-8 assay

cells = conditions: Homo sapiens, KM12-Luc, 72 h
Description: Cytotoxicity against human KM12-Luc cells expressing TPM3 fused TrkA assessed as inhibition of cell growth incubated for 3 days by CCK-8 assay

BaF3 [11] = assay: cells; conditions: Mus musculus, BaF3, 72 h; remark: listed apart in the source
BaF3 [12] = assay: cells; conditions: Mus musculus, BaF3, 72 h; remark: listed apart in the source
Description: Cytotoxicity against mouse BaF3 cells expressing LMNA fused TrkA G667S mutant assessed as inhibition of cell growth incubated for 3 days by CCK-8 assay

Chain of High affinity nerve growth factor receptor (P04629 whole entry): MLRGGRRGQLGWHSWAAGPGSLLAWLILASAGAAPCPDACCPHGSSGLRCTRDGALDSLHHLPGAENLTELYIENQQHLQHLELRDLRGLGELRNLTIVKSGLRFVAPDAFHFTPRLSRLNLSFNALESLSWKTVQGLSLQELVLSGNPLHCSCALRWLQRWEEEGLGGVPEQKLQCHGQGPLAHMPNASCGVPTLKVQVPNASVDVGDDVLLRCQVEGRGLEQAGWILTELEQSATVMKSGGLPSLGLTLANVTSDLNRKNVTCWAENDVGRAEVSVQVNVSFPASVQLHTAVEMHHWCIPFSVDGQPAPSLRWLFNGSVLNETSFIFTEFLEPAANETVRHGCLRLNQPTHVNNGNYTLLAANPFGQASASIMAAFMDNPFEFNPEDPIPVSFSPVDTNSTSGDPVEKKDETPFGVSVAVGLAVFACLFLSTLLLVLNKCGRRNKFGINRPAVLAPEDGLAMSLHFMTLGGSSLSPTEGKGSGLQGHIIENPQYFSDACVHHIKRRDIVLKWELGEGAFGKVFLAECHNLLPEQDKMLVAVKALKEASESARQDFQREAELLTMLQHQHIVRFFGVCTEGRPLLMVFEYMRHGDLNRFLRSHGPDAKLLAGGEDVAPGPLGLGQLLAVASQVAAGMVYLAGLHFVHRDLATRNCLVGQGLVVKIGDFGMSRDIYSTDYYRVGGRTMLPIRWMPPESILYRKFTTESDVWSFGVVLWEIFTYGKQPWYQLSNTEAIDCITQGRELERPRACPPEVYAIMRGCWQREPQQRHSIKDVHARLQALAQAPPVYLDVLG

IC50 [1]	IC50 (BaF3 [2])	IC50 [3]	Structure (SMILES)	also measured
127 nM	6040 nM	88 nM	Cc1cc(Nc2ncnc3c2OC(C)(C)C(=O)N3)ccc1NC(=O)Nc1cc(C(C)(C)C)nn1-c1ccccc1	–
50 nM	9290 nM	123 nM	COc1cc(NC(=O)Nc2cc(C(C)(C)C)nn2-c2ccccc2)ccc1Nc1ncnc2c1OC(C)(C)C(=O)N2	–
> 10000 nM	–	> 10000 nM	Cn1nc(C(C)(C)C)cc1NC(=O)Nc1ccc(Nc2ncnc3c2OC(C)(C)C(=O)N3)cc1	–
41 nM	> 10000 nM	245 nM	Cc1cc(NC(=O)Nc2cc(C(C)(C)C)nn2-c2ccc3ccccc3c2)ccc1Nc1ncnc2c1OC(C)(C)C(=O)N2	–
52 nM	740 nM	42 nM	Cc1cc(NC(=O)Nc2cc(C(C)(C)C)nn2-c2c(F)c(F)c(F)c(F)c2F)ccc1Nc1ncnc2c1OC(C)(C)C(=O)N2	–
–	> 10000 nM	342 nM	CC1(C)Oc2c(ncnc2Nc2cccc(NC(=O)Nc3cc(C(C)(C)C)nn3-c3ccccc3)c2)NC1=O	–
111 nM	6520 nM	48 nM	CC1(C)Oc2c(ncnc2Nc2ccc(NC(=O)Nc3cc(C(C)(C)C)no3)cc2)NC1=O	–
30 nM	245 nM	12 nM	Cc1cc(NC(=O)Nc2cc(C(C)(C)C)nn2-c2ccc(F)cc2)ccc1Nc1ncnc2c1OC(C)(C)C(=O)N2	–
9 nM	34 nM	19 nM	Cc1cc(NC(=O)Nc2cc(C(C)(C)C)nn2-c2ccc(F)c(F)c2)ccc1Nc1ncnc2c1OC(C)(C)C(=O)N2	IC50 (BaF3 [4]): 1 nM; IC50 (BaF3 [5]): 34 nM; IC50 at 3 days (in vitro): > 10000 nM; IC50 (BaF3 [6]): 10 nM; IC50 (BaF3 [7]): 25 nM; IC50 (BaF3 [8]): 5 nM; IC50 (BaF3 [9]): 2 nM; IC50 (BaF3 [10]): 2 nM; IC50 (cells): 8 nM; IC50 (BaF3 [11]): 82 nM; IC50 (BaF3 [12]): 14 nM
149 nM	3900 nM	182 nM	CC1(C)Oc2c(ncnc2Nc2ccc(NC(=O)Nc3cc(C(C)(C)C)nn3-c3ccccc3)c(C(F)(F)F)c2)NC1=O	–
38 nM	1900 nM	171 nM	Cc1cc(NC(=O)Nc2cc(-c3ccccc3)nn2-c2ccccc2)ccc1Nc1ncnc2c1OC(C)(C)C(=O)N2	–
13 nM	1140 nM	14 nM	Cc1cc(NC(=O)Nc2cc(C(C)(C)C)nn2-c2cccc(F)c2)ccc1Nc1ncnc2c1OC(C)(C)C(=O)N2	–
344 nM	1560 nM	228 nM	CC1(C)Oc2c(ncnc2Nc2ccc(NC(=O)Nc3cc(C(C)(C)C)nn3C3CCCCC3)cc2)NC1=O	–
38 nM	978 nM	10 nM	COc1cc(Nc2ncnc3c2OC(C)(C)C(=O)N3)ccc1NC(=O)Nc1cc(C(C)(C)C)nn1-c1ccccc1	–
20 nM	3270 nM	15 nM	Cc1cc(NC(=O)Nc2cc(C(C)(C)C)nn2-c2ccccc2F)ccc1Nc1ncnc2c1OC(C)(C)C(=O)N2	–
87 nM	382 nM	88 nM	CC1(C)Oc2c(ncnc2Nc2ccc(NC(=O)Nc3cc(C(C)(C)C)nn3-c3ccccc3)c3ccccc23)NC1=O	–
> 10000 nM	–	> 10000 nM	C=CCNC(=O)Nc1ccc(Nc2ncnc3c2OC(C)(C)C(=O)N3)cc1	–
35 nM	396 nM	21 nM	CC1(C)Oc2c(ncnc2Nc2ccc(NC(=O)Nc3cc(C(C)(C)C)nn3-c3ccccc3)cc2)NC1=O	–
6200 nM	> 10000 nM	1400 nM	CC1(C)Oc2c(ncnc2Nc2ccc(NC(=O)Nc3cc(C(C)(C)C)nn3C(C)(C)C)cc2)NC1=O	–
> 10000 nM	–	> 10000 nM	CC(C)(C)NC(=O)Nc1ccc(Nc2ncnc3c2OC(C)(C)C(=O)N3)cc1	–
89 nM	230 nM	106 nM	CSc1cc(Nc2ncnc3c2OC(C)(C)C(=O)N3)ccc1NC(=O)Nc1cc(C(C)(C)C)nn1-c1ccccc1	–

IC50 [1]	IC50 (BaF3 [2])	IC50 [3]	Structure (SMILES)	also measured
14 nM	709 nM	22 nM	Cc1cc(NC(=O)Nc2cc(C(C)(C)C)nn2-c2cccnc2)ccc1Nc1ncnc2c1OC(C)(C)C(=O)N2	–
22 nM	58 nM	18 nM	Cc1ccc(-n2nc(C(C)(C)C)cc2NC(=O)Nc2ccc(Nc3ncnc4c3OC(C)(C)C(=O)N4)c(C)c2)cc1	IC50 (BaF3 [4]): 1 nM; IC50 (BaF3 [5]): 58 nM; IC50 at 3 days (in vitro): 2990 nM; IC50 (BaF3 [6]): 4 nM; IC50 (BaF3 [7]): 13 nM; IC50 (BaF3 [8]): 5 nM; IC50 (BaF3 [9]): 1 nM; IC50 (BaF3 [10]): 2 nM; IC50 (cells): 6 nM; IC50 (BaF3 [11]): 31 nM; IC50 (BaF3 [12]): 4 nM
> 10000 nM	–	> 10000 nM	Cc1ccc(NC(=O)Nc2ccc(Nc3ncnc4c3OC(C)(C)C(=O)N4)cc2)cc1	–
–	–	–	O=C(Nc1cnn2ccc(N3CCC[C@@H]3c3cc(F)ccc3F)nc12)N1CC[C@H](O)C1 [LAROTRECTINIB]	IC50 (BaF3 [4]): 1260 nM; IC50 (BaF3 [5]): 1490 nM; IC50 at 3 days (in vitro): 3570 nM; IC50 (BaF3 [6]): 547 nM; IC50 (BaF3 [7]): 59 nM; IC50 (BaF3 [8]): 1 nM; IC50 (BaF3 [9]): 11 nM; IC50 (BaF3 [10]): 586 nM; IC50 (cells): 11 nM; IC50 (BaF3 [11]): 4060 nM; IC50 (BaF3 [12]): 321 nM
> 10000 nM	–	> 10000 nM	CCNC(=O)Nc1ccc(Nc2ncnc3c2OC(C)(C)C(=O)N3)cc1	–
156 nM	3760 nM	33 nM	CC1(C)Oc2c(ncnc2Nc2ccc(NC(=O)Nc3cc(C(C)(C)C)on3)cc2)NC1=O	–
–	4020 nM	17 nM	CC1(C)Oc2c(ncnc2Nc2ccc(NC(=O)Nc3cccc(C(F)(F)F)c3)cc2)NC1=O	–
> 10000 nM	–	> 10000 nM	CC1(C)Oc2c(ncnc2Nc2ccc(NC(=O)Nc3ccc(F)c(F)c3)cc2)NC1=O	–
> 10000 nM	–	> 10000 nM	CC1(C)Oc2c(ncnc2Nc2ccc(NC(=O)Nc3cccc(F)c3)cc2)NC1=O	–
> 10000 nM	–	> 10000 nM	CC1(C)Oc2c(ncnc2Nc2ccc(NC(=O)Nc3ccc(C#N)cc3)cc2)NC1=O	–
100 nM	5080 nM	202 nM	CC1(C)Oc2c(ncnc2Nc2ccc(NC(=O)Nc3cc(C(F)(F)F)cc(C(F)(F)F)c3)cc2)NC1=O	–
> 10000 nM	–	> 10000 nM	CC1(C)Oc2c(ncnc2Nc2ccc(NC(=O)NC34C[C@H]5C[C@@H](C3)C[C@@H](C4)C5)cc2)NC1=O	–
46 nM	86 nM	40 nM	Cc1cc(NC(=O)Nc2cc(C(C)(C)C)nn2-c2ccc(OC(F)(F)F)cc2)ccc1Nc1ncnc2c1OC(C)(C)C(=O)N2	–
211 nM	1350 nM	381 nM	CC1(C)Oc2c(ncnc2Nc2ccc(NC(=O)Nc3ccc(Cl)c(C(F)(F)F)c3)cc2)NC1=O	–
81 nM	978 nM	38 nM	CC1(C)Oc2c(ncnc2Nc2ccc(NC(=O)Nc3cc(C(C)(C)C)nn3-c3ccccc3)c(F)c2)NC1=O	–
> 10000 nM	> 10000 nM	> 10000 nM	CC(C)n1nc(C(C)(C)C)cc1NC(=O)Nc1ccc(Nc2ncnc3c2OC(C)(C)C(=O)N3)cc1	–
–	86 nM	–	Cc1cc(NC(=O)Nc2cc(C(C)(C)C)nn2-c2ccc(C(F)(F)F)cc2)ccc1Nc1ncnc2c1OC(C)(C)C(=O)N2	IC50 (BaF3 [4]): 2 nM; IC50 (BaF3 [5]): 86 nM; IC50 at 3 days (in vitro): > 10000 nM; IC50 (BaF3 [6]): 13 nM; IC50 (BaF3 [8]): 2 nM; IC50 (BaF3 [9]): 2 nM; IC50 (BaF3 [10]): 3 nM; IC50 (cells): 13 nM; IC50 (BaF3 [12]): 10 nM
23 nM	2010 nM	10 nM	Cc1cc(NC(=O)Nc2cc(C3CC3)nn2-c2ccccc2)ccc1Nc1ncnc2c1OC(C)(C)C(=O)N2	–
13 nM	51 nM	–	Cc1cc(NC(=O)Nc2cc(C(C)(C)C)nn2-c2ccccc2)ccc1Nc1ncnc2c1OC(C)(C)C(=O)N2	IC50 (BaF3 [4]): 2 nM; IC50 (BaF3 [5]): 51 nM; IC50 at 3 days (in vitro): > 10000 nM; IC50 (BaF3 [6]): 19 nM; IC50 (BaF3 [7]): 39 nM; IC50 (BaF3 [8]): 5 nM; IC50 (BaF3 [9]): 15 nM; IC50 (cells): 21 nM; IC50 (BaF3 [11]): 151 nM; IC50 (BaF3 [12]): 34 nM
> 10000 nM	–	> 10000 nM	CC1(C)Oc2c(ncnc2Nc2ccc(NC(=O)NC3CCCCC3)cc2)NC1=O	–

Reference: ChEMBL document CHEMBL5042533, “Structural Optimization and Structure-Activity Relationship Studies of 6,6-Dimethyl-4-(phenylamino)-6H-pyrimido[5,4-b][1,4]oxazin-7(8H)-one Derivatives as A New Class of Potent Inhibitors of Pan-Trk and Their Drug-Resistant Mutants” (J Med Chem, 2022)
